According to a melting point compilation (Tetko et al.; mined from patent text by program, amines drawn as free bases though some values may be those of a salt):

| melting point [°C] | SMILES |
| --- | --- |
| 68 to 70 | C=CC(Cc1ccccc1)(C(=O)O)N(Cc1ccccc1)C(=O)OCc1ccccc1 (stereo not given) |
| 161 to 163 | Cn1nc(-c2c(Cl)cccc2Cl)nc1-c1cccs1 |
| 156 to 158 | COC(=O)c1ccc(CC(=O)Nc2cc(Cl)ccc2N2CCCCC2)cc1 |
| 218 to 220 | COc1cccc(CNC(=O)c2nc3cccc(OCc4ccc(C#N)cc4)c3c(=O)[nH]2)c1 |
| 99 to 101 | CCOC(=O)c1ccccc1NC(=O)NCC1(c2ccccc2)CCCCC1 |
| 176 to 178 | CCc1ccc2c(c1)C1(CCN(C(=O)Nc3cnc(-c4ccccc4)cn3)CC1)OC2=O |
| 104 to 107 | Cc1cc(Cn2nc(C(F)(F)F)cc2C(F)(F)F)ccc1NC(=O)c1cccc(I)c1C(=O)NC(C)(C)CS(C)(=O)=O |
| 170 to 175 | CC1(C)CC(=O)C(=C(O)COc2ccc(Cl)cc2Cl)C(=O)C1 |
| 217 to 219 | O=c1ccn(-c2cccc(C(F)(F)F)c2)nc1-c1conc1-c1ccccc1 |
| 350 to 353 | O=c1c2ccc(Cl)cc2[nH]c2c(O)nn(-c3ccc(O)c(Cl)c3)c(=O)c12 |
| 200 to 201 | Cc1c(Cc2cccc(C(F)(F)F)c2)oc2c(-c3cccc(C(=O)O)c3)cccc12 |
| 210 to 212 | CC(=O)NC[C@H]1CN(c2ccc(N3CCC(F)(CC#N)CC3)c(F)c2)C(=O)O1 |
| 61 to 63 | O=S(=O)(F)C=CNc1ccc(Cl)cc1 |
| 129 to 130 | CCn1ncc2c1ncc1c(OC(C)C)nc3cc(C)nn3c12 |
| 92 to 96 | CC(C(=O)O)c1ccc(OCCNC(=O)C2Cc3ccccc3N2S(=O)(=O)c2ccc(-c3cccc(C(F)(F)F)c3)cc2)cc1 (stereo not given) |
| 60 to 61 | CC(C)COC1=C(Cc2ccc(Cl)cc2)C(=O)CC(C)(C)C1 |
| 100 to 105 | CC(=O)OC[C@H]1O[C@@H](Cn2ccc(=S)[nH]c2=O)[C@@H](OC(C)=O)[C@@H]1OC(C)=O |
| 153 to 154 | CCOCc1cc2cc(Br)ccc2oc1=Nc1ccc(F)cc1 |
| 169 to 174 | CCCCCCCCCCCCCCCC(=O)NC(CCCCCCCCCCCCCCC)CC(=O)NCCC(=O)NC(Cc1ccccc1)C(=O)O (stereo not given) |
| 112 to 116 | CC(C)(F)[C@H]1C(=O)N[C@@H]1CC(=O)OCc1ccccc1 (racemic) |
| 237 to 238 | Clc1nc(-c2cccnc2)[nH]c1Cl |
| 111 to 112 | OCc1cc(OCc2ccc3ccccc3n2)no1 |
| 94 to 95 | CCn1nc(Cl)c2ccn(-c3ccc(C)cc3C)c2c1=O |

| melting point [°C] | SMILES |
| --- | --- |
| 220 to 223 | CCCc1ccc(-c2ccc(-c3ccc(O)cc3)nn2)cc1 |
| 123 | CCC(CC(O)C(CC1CCCCC1)NC(=O)C(Cc1c[nH]cn1)NC(=O)C(Cc1ccccc1)C(=O)NO)C(C)C (stereo not given) |
| 178 to 179 | COc1cccc([C@H]2O[C@H](CC(=O)Nc3cc4c(c(C(=O)O)c3)CCCC4)C(=O)N(CC(C)(C)CO)c3ccc(Cl)cc32)c1OC |
| 112 to 115 | O=C(NCc1ccccc1)c1nn(-c2ccc(Cl)cc2)c2c1C1CCC2C1 (stereo not given) |
| 119 to 122 | CN(C(=O)OC(C)(C)C)c1sc(-c2cccnc2)nc1Cl |
| 126 to 129 | CCOC(=S)c1c(COC)nc2cc(F)c(F)cc2c1O |
| 95 to 100 | CCOC(=O)c1cn(CCc2ccc(O)cc2)c2cc(C3CC3)nn2c1=O |
| 73 to 76 | CC1(C)C2C=CC3(C)C(C2)C(=O)CCC13O[Si](C)(C)C (stereo not given) |
| 187 to 189 | Cc1c(CC(=O)O)c2c(F)c(O)ccc2n1C(=O)c1ccc(Cl)cc1 |
| 208 to 210 | COC(=O)C(=C\c1c(OC)cc(OC)cc1OC)/C(=C\c1ccccc1)C(=O)O |
| 249 to 251 | Cc1n[nH]c(=O)c(-c2c(F)cc(F)cc2F)c1-c1cccs1 |
| 124 to 125 | COC(=O)c1cc2c3cc(OC)ccc3n(C)c2s1 |
| > 250 | NC(=O)Cn1c(-c2ccc(Br)o2)nc2cccnc21 |
| 187 to 188 | COc1ccc(C(=O)Nc2cc(NC(=O)c3cccc(N(C)C)c3)ccc2F)cc1OC |
| 124 to 126 | C=CCOc1cc(CNc2nc(C)nc(C)c2Cl)ccc1O |
| 193 | NC(=NO)c1ccc(O)c(O)c1 |
| 140 to 142 | COc1cc(C)c(C(C)O)cc1NC(=O)N1CCN(c2cc(C)cc(C)c2)CC1 (stereo not given) |
| 120 to 123 | CSC[C@H](N)C(=O)NC(C)=O |
| 179 to 181 | CCOc1ccc(OCC(C)(NS(=O)(=O)Cc2ccccc2)C(=O)N(C)OC)cc1 (stereo not given) |
| 282 | CCOC(=O)Cn1c2c([nH]c(=O)c1=O)CCC1=C2C=C(n2ccc(C(=O)O)c2)CC1 |
| 196 to 198 | CN(C)c1nc2cc(NC(=O)c3c(C(=O)N4CCOCC4)cnn3C)ccn2n1 |
| 73 to 75 | CCNC(=S)OCCOc1ccc(Oc2ccc(F)cc2)cc1 |
| 201 to 203 | CCOCc1nc2c(N)nc3cc(OCc4ccccc4)ccc3c2n1CC(C)C |

| melting point [°C] | SMILES |
| --- | --- |
| 130 to 131 | CCOC(=O)CNc1ncccc1NC(=O)c1ccc(OC)cc1 |
| 81 to 82 | CN(C)CCc1cccc(OCCCNc2nc(N)nn2C)c1 |
| 122 to 123 | CC(C(N)=O)c1ccc2c(c1)CCc1ccccc1O2 (stereo not given) |
| 93 to 95 | CCCCC(CC)COc1ccc(-c2nc(-c3ccc(OCC(CC)CCCC)cc3)nc(-c3ccc(OCC(CC)CCCC)cc3O)n2)cc1 (stereo not given) |
| 101 to 102 | COc1ccc(CCN2CCC(n3ccc4ccc(CNC(C)=O)cc43)CC2)cc1 |
| 85.5 to 86.5 | Cc1ccc(-c2ncc(-c3cccs3)s2)cc1 |
| 190 to 193 | Cc1cccc(NC(=O)OCc2cccc(O)c2)c1CNc1cccn2c(C)c(C)nc12 |
| 149 to 151 | O=C(CCc1ccccc1)Nc1ccc(Br)cc1 |
| 280 | O=C(Nc1nccs1)c1c(CO)nc2c(C(F)(F)F)cccc2c1O |
| 102 to 104 | COc1cccc(CC(=O)O)c1OCCCc1cn(-c2ccccn2)nc1C(C)C |
| 190 | O=c1[nH]c2ccccc2n1CCCCCCN1CCN(C(c2ccccc2)c2ccccc2)CC1 |
| 139 to 140 | C#Cc1ccc2c(c1)C(Cc1ccnc(F)c1)(Cc1ccnc(F)c1)c1cccnc1-2 |
| 206 to 209 | Fc1ccc(-c2nc3ccc(N4CCN(C5CC5)CC4)nn3c2-c2ccnnc2)cc1 |
| 171 to 174 | COCCc1nc2c(N)nc3ccccc3c2n1CCOc1ccccc1 |
| 298 to 300 | O=C(Nc1cnccn1)c1cn(-c2ccccc2)c2ccccc2c1=O |
| 170 to 171 | CCS(=O)(=O)NCc1cccc(-c2nc(=O)c3ccccc3s2)n1 |
| 134 to 136 | CCOCC1OC(n2cnc3c(NC4CCCC4)ncnc32)C(O)C1O (stereo not given) |
| 250 to 251 | COc1ccc(Nc2nc(=O)c3cccnc3s2)cc1 |
| 102 to 104 | N#CC(CC(=O)CCl)(c1ccccc1)c1ccccc1 |
| 118 to 120 | Cc1c(N2CCC3(CC3N)C2)c(F)c(N)c2c(=O)c(C(=O)O)cn([C@@H]3C[C@@H]3F)c12 (stereo not given in full) |
| 147 | CCOCCn1c(SC2CCN(C(=O)c3cc(C)cc(C)c3)C(Cc3ccccc3)C2)nc2ccccc21 (stereo not given) |
| 202 to 204 | COc1ccc(-c2nc(Sc3ccc(Cl)cc3)n(C3CCCCO3)c2-c2ccc(OC)cc2)cc1 (stereo not given) |
| 125 to 126 | CCCc1c(C(=O)c2ccc(OS(=O)(=O)c3ccc(C)cc3)cc2)c2ccccn2c1C(C)=O |

| melting point [°C] | SMILES |
| --- | --- |
| 212 to 215 | O=C(O)C1CCCc2c1c1ccccc1n2Cc1ccccc1 (stereo not given) |
| 208 | CC(=O)C(c1ccc(Cl)cc1)c1c(Cl)cc(-n2ncc(=O)[nH]c2=O)cc1Cl (stereo not given) |
| 139 to 140 | COC(=O)c1ccc(OC)c(/C=C/C(=O)N(C(C)C)C(C)C)c1 |
| 199 to 201 | CN(Cc1nc(-c2cc(C(C)(C)C)c(O)c(C(C)(C)C)c2)cs1)c1ccc([N+](=O)[O-])cc1 |
| 148 to 150 | CCCCOc1ccc2c(=O)c(S(C)=O)cn(C)c2c1 (stereo not given) |
| 206 to 207 | COc1cccc(OCCF)c1-c1ccc(C[C@H](NC(=O)c2c(Cl)cccc2Cl)C(=O)O)cc1 |
| 144 to 145 | CCOC(=O)C(=CNc1nnc(-c2cccnc2)s1)C(=O)OCC |
| 245 to 248 | Cc1cc(-c2n[nH]c(-c3ccncc3)n2)ccn1 |
| 152 to 154 | COc1ccc2ccn3c(C(F)(F)F)nnc3c2c1 |
| 163 to 164 | CC1(C)C(=O)N(c2ccc([N+](=O)[O-])c(C(F)(F)F)c2)C(=O)N1CCCCCN1C(=O)N(c2ccc([N+](=O)[O-])c(C(F)(F)F)c2)C(=O)C1(C)C |
| 88 to 89 | CCCCC1(CCCC)CCc2ccc(OCc3ccc4ccccc4n3)cc2C1=O |
| 204 | COc1ccc2cccc(N3C(=O)CN(CC#N)CC3=O)c2c1 |
| 112 to 113 | NC(=O)N(O)CC1CCC1 |
| 60 to 70 | CC(C)(C)OC(=O)c1ccc(OCCNC(=O)C2Cc3ccccc3N2S(=O)(=O)c2ccc(-c3ccc(F)cc3OC(F)F)cc2)cc1 (stereo not given) |
| 116 to 118 | O=C(Nc1ccc(OCCN2CCOCC2)c2ccccc12)c1cc(F)cc(OC2CCCCC2)c1 |
| 152 to 153 | COc1cc(OC)c2c(C)c(CCN3CCN(c4ccccc4F)CC3)c(=O)oc2c1 |
| 110 to 111 | CN(CCOc1ccc(Cn2cc(CCC(=O)O)c(-c3ccccc3)c2)cc1)c1ccccn1 |
| 183 | O=C(COc1cc(-c2ccsc2)nc2ccccc12)N1CCOCC1 |
| 200 to 203 | CCCc1nc2c(N)nc3cc(OCC(=O)N4CCOCC4)ccc3c2s1 |
| 58 to 60 | CCc1ccc(S(=O)O)cc1Cl |
| 164 to 166 | Cc1cc(C2=NNC(=O)Cc3cc4c(cc32)OCO4)ccc1N |
| 138 to 140 | CCCCNS(=O)(=O)CC(O)(CCCC)C1OC(C)(C)N(C(=O)OC(C)(C)C)C1CC1CCCCC1 (stereo not given) |

| SMILES | melting point [°C] |
| --- | --- |
| CC12CC(N3CCC(O)CC3)C(O)CC1CCC1C2CCC2(C)C(O)C(N3CCC4(CC3)OCCO4)CC12 (stereo not given) | 199 to 201 |
| CN1Cc2c(C(N)=O)ncn2-c2cccc(Cl)c2C1=O | > 250 |
| CCCc1c(C(=O)C2CCCC2)c2ccc(C(N)=O)cc2n1Cc1cc2c(cc1Cl)OCO2 | 236 to 237 |
| OCCOCc1nnc2n1-c1ccc(Cl)cc1C(c1ccccc1)=NC2 | 162 to 164 |
